Data taken from patent US20250325677A1, “STAT6 DEGRADERS” (Gilead Sciences, Inc., priority 2024, published 2025).

Assays:
STAT6 [1] = biological target: T1, STAT6 (Homo sapiens (Human), UniProt P42226); assay: STAT6 degrader assay (HiBiT, HeLa LgBiT clone 4.14); type: cell-based; settings: HeLa LgBiT clone 4.14, 4-24 h; geometric mean; given for compounds with >80% Emax; read-out: STAT6 degradation DC50
How it was run: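 HeLa LgBiT clone 4.14 cells with HiBiT knocked into endogenous STAT6 were treated with compound for 4-24 h at 37° C. Luminescence after Nano-GLO substrate (0.5 h) measured remaining STAT6; 50 μM terfenadine wells defined 100% degradation, and DC50 (nM) was derived.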
Target sequence in this assay (P42226 whole entry): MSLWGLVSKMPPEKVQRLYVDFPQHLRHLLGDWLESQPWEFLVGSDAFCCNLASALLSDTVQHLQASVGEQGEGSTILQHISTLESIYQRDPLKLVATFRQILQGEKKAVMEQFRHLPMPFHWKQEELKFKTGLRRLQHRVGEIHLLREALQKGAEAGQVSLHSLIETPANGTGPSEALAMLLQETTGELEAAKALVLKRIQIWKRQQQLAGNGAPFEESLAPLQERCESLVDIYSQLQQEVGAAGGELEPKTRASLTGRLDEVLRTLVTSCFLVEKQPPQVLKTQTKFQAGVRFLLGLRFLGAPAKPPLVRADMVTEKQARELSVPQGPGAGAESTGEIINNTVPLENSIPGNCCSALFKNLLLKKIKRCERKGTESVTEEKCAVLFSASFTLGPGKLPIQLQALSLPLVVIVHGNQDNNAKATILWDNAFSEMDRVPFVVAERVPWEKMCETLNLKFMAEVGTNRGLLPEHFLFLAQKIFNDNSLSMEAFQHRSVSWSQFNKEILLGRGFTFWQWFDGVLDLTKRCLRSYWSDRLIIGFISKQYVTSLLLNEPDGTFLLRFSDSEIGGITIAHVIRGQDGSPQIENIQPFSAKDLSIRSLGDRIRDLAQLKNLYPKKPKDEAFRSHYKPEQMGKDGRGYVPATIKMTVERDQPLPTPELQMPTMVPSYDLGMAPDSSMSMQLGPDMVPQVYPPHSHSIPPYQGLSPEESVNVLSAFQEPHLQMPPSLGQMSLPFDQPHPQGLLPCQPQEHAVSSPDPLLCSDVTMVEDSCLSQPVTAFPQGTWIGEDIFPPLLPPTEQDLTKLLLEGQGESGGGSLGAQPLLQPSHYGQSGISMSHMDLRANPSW

STAT6 [2] = biological target: T1, STAT6; assay: Surface plasmon resonance assay; type: binding; settings: truncated human STAT6 aa122-658, 25° C.; read-out: STAT6 SPR Kd
Procedure: Surface Plasmon Resonance Assay
SPR was used to confirm and quantify binding of compounds to human STAT6. Biacore instruments from the 8K-series (Cytiva) were used, and measurements were performed at 25° C. Human STAT6 (truncated, aa122-658, with N-terminal His-tag, expressed in insect cells) was immobilized in the active flow cells on a CM5 chip using amine-coupling (default settings) at 10 μg/ml in 10 mM acetate buffer pH 5.5, at a contact time of 120-420 sec. and a flow rate of 10 μl/min. Reference flow cells were deactivated using blank immobilization. PBS-P+(Cytiva) supplemented with 2% DMSO was used as running buffer, and solvent correction was applied. Compounds were tested by multi-cycle kinetics injections using a contact time of 60 sec., dissociation time of up to 300 sec., and a flow rate of 30 μl/min.
Solvent-corrected, reference-subtracted and blank-corrected data was processed and binding isotherms were fitted according to a single report point from each sensorgram (Standard: Late binding (5 sec. before injection end); alternative: Earlier report point according to binding profile). Data fitting was done both with unfixed Rmax and with Rmax fixed to the theoretical value* assuming 1:1 binding to allow processing of data from both weak and strong binders as well as to evaluate binding stoichiometry.
Positive controls were run at the beginning, during, and at the end of the screen to evaluate surface activity. Generally surface activity was only affected to a minor degree, and no corrections were applied. • Equation for calculation of the theoretical Rmax (Theoretical Rmax=(MW Analyte/MW Ligand)×immobilization level).
The sensorgrams for Examples 3e5, 3t4, and 3p1 are shown in FIG. 1 (where RU is plotted vs. time in seconds; dotted lines/points were excluded from the analysis due to effects from non-specific binding)).
Target sequence in this assay (P42226 122-658): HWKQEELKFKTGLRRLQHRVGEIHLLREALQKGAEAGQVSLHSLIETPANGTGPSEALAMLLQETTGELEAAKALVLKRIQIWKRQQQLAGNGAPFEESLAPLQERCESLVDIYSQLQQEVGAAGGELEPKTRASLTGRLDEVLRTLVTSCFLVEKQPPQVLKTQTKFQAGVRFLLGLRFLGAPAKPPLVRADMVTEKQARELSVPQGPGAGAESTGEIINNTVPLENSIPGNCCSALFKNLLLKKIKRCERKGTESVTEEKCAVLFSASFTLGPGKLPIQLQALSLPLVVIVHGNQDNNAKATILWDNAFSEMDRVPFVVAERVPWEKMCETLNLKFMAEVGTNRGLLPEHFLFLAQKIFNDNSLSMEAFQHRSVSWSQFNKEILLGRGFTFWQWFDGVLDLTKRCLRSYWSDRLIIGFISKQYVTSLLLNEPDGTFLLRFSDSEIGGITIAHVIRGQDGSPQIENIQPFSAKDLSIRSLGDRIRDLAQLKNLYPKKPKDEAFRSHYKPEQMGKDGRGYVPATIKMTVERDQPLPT

eotaxin-3 release = assay: Human whole blood eotaxin-3 assay (IL-4 stimulated); type: cell-based; settings: human whole blood, IL-4 0.4 nM, 48 hours; geometric mean; given for compounds with >80% Emax; read-out: Eotaxin-3 EC50
How it was run: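 Human whole blood was preincubated with compound for 120 min at 37 °C, then stimulated with recombinant human IL-4 (E. coli) at 0.4 nM final for 48 h. Inhibition of eotaxin-3 release gave EC50 values.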

Cn1c(CN2CCC(c3ccc(C(=O)N4CCC(CN5CCN(Cc6ccc7c(c6)n(C6CC6)c(=O)n7C6CCC(=O)NC6=O)CC5)CC4)cc3)CC2)cc2c(-c3ccc(N)nc3)ccnc21 (stereo not shown) [Example 3e5, 3-(5-((4-((1-(4-(1-((4-(6-aminopyridin-3-yl)-1-methyl-1H-pyrrolo[2,3-b]pyridin-2-yl)methyl)piperidin-4-yl)benzoyl)piperidin-4-yl)methyl)piperazin-1-yl)methyl)-3-cyclopropyl-2-oxo-2,3-dihydro-1H-benzo[d]imidazol-1-yl)piperidine-2,6-dione]
DC50 (STAT6 [1]): 5.4 nM | Kd (STAT6 [2]): 104 nM

CN(C(=O)c1ccc(C2CCN(Cc3cc4c(-c5ccc(N)nc5)ccnc4n3C)CC2)cc1)c1ccc(C2CCN(Cc3ccc4c(c3)n(C)c(=O)n4C3CCC(=O)NC3=O)CC2)cc1 (stereo not shown) [Example 3p1, 4-(1-((4-(6-aminopyridin-3-yl)-1-methyl-1H-pyrrolo[2,3-b]pyridin-2-yl)methyl)piperidin-4-yl)-N-(4-(1-((1-(2,6-dioxopiperidin-3-yl)-3-methyl-2-oxo-2,3-dihydro-1H-benzo[d]imidazol-5-yl)methyl)-piperidin-4-yl)phenyl)-N-methylbenzamide]
DC50 (STAT6 [1]): 0.1 nM | EC50 (eotaxin-3 release): 1 nM | Kd (STAT6 [2]): 11.4 nM

Cn1c(CN2CCC(c3ccc(-c4nnc5ccc(N6CCC(CN7CCN(Cc8ccc9c(c8)n(C)c(=O)n9C8CCC(=O)NC8=O)CC7)CC6)nn45)cc3)CC2)cc2c(-c3ccc(N)nc3)ccnc21 (stereo not shown) [Example 3t4, 3-(5-((4-((1-(3-(4-(1-((4-(6-aminopyridin-3-yl)-1-methyl-1H-pyrrolo[2,3-b]pyridin-2-yl)methyl)-piperidin-4-yl)phenyl)-[1,2,4]triazolo[4,3-b]pyridazin-6-yl)piperidin-4-yl)methyl)piperazin-1-yl)methyl)-3-methyl-2-oxo-2,3-dihydro-1H-benzo[d]imidazol-1-yl)piperidine-2,6-dione]
DC50 (STAT6 [1]): 0.1 nM | Kd (STAT6 [2]): 37.8 nM
